# Source: ChEMBL document CHEMBL3885861, “Open TG-GATES”
# Species: Rattus norvegicus
# Assay: Open TG-GATES - Regimen: Daily Repeat
# Type: toxicity, organism-based, Sprague-Dawley
# Set-up: regimen Daily Repeat, gender Male, age 6 weeks
# Conditions: in vivo, po, 100 mg/kg, route gavage, dose level High; for APTT / Bas / Eos / Fbg / Hb / Ht / Lym / MCH / MCHC / MCV / Mono / Neu / PT / Plat / RBC / Ret / WBC: tissue Blood; for KIDNEY_L / KIDNEY_R / KIDNEY_TOTAL: tissue Kidney; for LIVER: tissue Liver; for A/G / ALP / ALT / AST / BUN / CRE / Ca / Cl / DBIL / GLC / IP / K / LDH / Na / PL / RALB / TBIL / TC / TG / TP / gamma-GTP: tissue Plasma
smiles,measurement,setting,value
CC1=C(/C=C/C(C)=C/C=C/C(C)=C/CO)C(C)(C)CCC1 [RETINOL],TERMINAL_BW,"72 h, time 3 day",214.3 g
same,APTT,"72 h, time 3 day",29 s
same,Bas,"72 h, time 3 day",0%
same,Eos,"72 h, time 3 day",0.4%
same,Fbg,"72 h, time 3 day",274.4 mg/dL
same,Hb,"72 h, time 3 day",13.8 g/dL
same,Ht,"72 h, time 3 day",39.8%
same,Lym,"72 h, time 3 day",74.4%
same,MCH,"72 h, time 3 day",21 pg
same,MCHC,"72 h, time 3 day",34.6%
same,MCV,"72 h, time 3 day",60.9 fL
same,Mono,"72 h, time 3 day",3.4%
same,Neu,"72 h, time 3 day",20.6%
same,PT,"72 h, time 3 day",18.1 s
same,Plat,"72 h, time 3 day",112.8 x10_4/uL
same,RBC,"72 h, time 3 day",654.8 x10_4/ul
same,Ret,"72 h, time 3 day",4.3%
same,WBC,"72 h, time 3 day",95.3 x10_2/uL
same,KIDNEY_L,"72 h, time 3 day",1 g
same,KIDNEY_R,"72 h, time 3 day",1 g
same,KIDNEY_TOTAL,"72 h, time 3 day",2 g
same,LIVER,"72 h, time 3 day",10.3 g
same,A/G,"72 h, time 3 day",1.3
same,ALP,"72 h, time 3 day",2174.2 IU/L
same,ALT,"72 h, time 3 day",52.2 IU/L
same,AST,"72 h, time 3 day",83.8 IU/L
same,BUN,"72 h, time 3 day",17 mg/dL
same,CRE,"72 h, time 3 day",0.1 mg/dL
same,Ca,"72 h, time 3 day",11.1 mg/dL
same,Cl,"72 h, time 3 day",107 meq/L
same,DBIL,"72 h, time 3 day",0.004 mg/dL
same,GLC,"72 h, time 3 day",192.2 mg/dL
same,IP,"72 h, time 3 day",7.9 mg/dL
same,K,"72 h, time 3 day",4.3 meq/L
same,LDH,"72 h, time 3 day",241 IU/L
same,Na,"72 h, time 3 day",141.8 meq/L
same,PL,"72 h, time 3 day",151.2 mg/dL
same,RALB,"72 h, time 3 day",3.1 g/dL
same,TBIL,"72 h, time 3 day",0.01 mg/dL
same,TC,"72 h, time 3 day",70.6 mg/dL
same,TG,"72 h, time 3 day",196.2 mg/dL
same,TP,"72 h, time 3 day",5.6 g/dL
same,gamma-GTP,"72 h, time 3 day",1.4 IU/L
same,TERMINAL_BW,"[…], time 7 day",231.5 g
same,TERMINAL_BW,"[…], time 14 day",234.2 g
same,TERMINAL_BW,"[…], time 28 day",190.7 g
same,APTT,"[…], time 7 day",32.7 s
same,Bas,"[…], time 7 day",0%
same,Eos,"[…], time 7 day",0.2%
same,Fbg,"[…], time 7 day",293.8 mg/dL
same,Hb,"[…], time 7 day",13.6 g/dL
same,Ht,"[…], time 7 day",38.5%
same,Lym,"[…], time 7 day",73.2%
same,MCH,"[…], time 7 day",21.1 pg
same,MCHC,"[…], time 7 day",35.2%
same,MCV,"[…], time 7 day",60 fL
same,Mono,"[…], time 7 day",2.6%
same,Neu,"[…], time 7 day",22.4%
same,PT,"[…], time 7 day",16.1 s
same,Plat,"[…], time 7 day",114.4 x10_4/uL
same,RBC,"[…], time 7 day",642.2 x10_4/ul
same,Ret,"[…], time 7 day",2%
same,WBC,"[…], time 7 day",102.2 x10_2/uL
same,APTT,"[…], time 14 day",43.8 s
same,Bas,"[…], time 14 day",0%
same,Eos,"[…], time 14 day",0.4%
same,Fbg,"[…], time 14 day",373.8 mg/dL
same,Hb,"[…], time 14 day",13 g/dL
same,Ht,"[…], time 14 day",36.5%
same,Lym,"[…], time 14 day",62.8%
same,MCH,"[…], time 14 day",20.2 pg
same,MCHC,"[…], time 14 day",35.6%
same,MCV,"[…], time 14 day",56.6 fL
same,Mono,"[…], time 14 day",4.2%
same,Neu,"[…], time 14 day",31.8%
same,PT,"[…], time 14 day",18.5 s
same,Plat,"[…], time 14 day",127.2 x10_4/uL
same,RBC,"[…], time 14 day",644.8 x10_4/ul
same,Ret,"[…], time 14 day",1.3%
same,WBC,"[…], time 14 day",139.1 x10_2/uL
same,APTT,"[…], time 28 day",37 s
same,Bas,"[…], time 28 day",0%
same,Eos,"[…], time 28 day",0.5%
same,Fbg,"[…], time 28 day",294 mg/dL
same,Hb,"[…], time 28 day",12.1 g/dL
same,Ht,"[…], time 28 day",34.3%
same,Lym,"[…], time 28 day",60.5%
same,MCH,"[…], time 28 day",17.9 pg
same,MCHC,"[…], time 28 day",35.2%
same,MCV,"[…], time 28 day",50.8 fL
same,Mono,"[…], time 28 day",5%
same,Neu,"[…], time 28 day",33.5%
same,PT,"[…], time 28 day",17.8 s
same,Plat,"[…], time 28 day",144.9 x10_4/uL
same,RBC,"[…], time 28 day",673 x10_4/ul
same,Ret,"[…], time 28 day",2.9%
same,WBC,"[…], time 28 day",160.4 x10_2/uL
same,KIDNEY_L,"[…], time 7 day",1.1 g
same,KIDNEY_R,"[…], time 7 day",1.1 g
same,KIDNEY_TOTAL,"[…], time 7 day",2.2 g
same,KIDNEY_L,"[…], time 14 day",1.1 g
same,KIDNEY_R,"[…], time 14 day",1.1 g
same,KIDNEY_TOTAL,"[…], time 14 day",2.2 g
same,KIDNEY_L,"[…], time 28 day",1 g
same,KIDNEY_R,"[…], time 28 day",1.1 g
same,KIDNEY_TOTAL,"[…], time 28 day",2.1 g
same,LIVER,"[…], time 7 day",11.9 g
same,LIVER,"[…], time 14 day",11.2 g
same,LIVER,"[…], time 28 day",9.5 g
same,A/G,"[…], time 7 day",1
same,ALP,"[…], time 7 day",2413.2 IU/L
same,ALT,"[…], time 7 day",47.8 IU/L
same,AST,"[…], time 7 day",91.4 IU/L
same,BUN,"[…], time 7 day",16.8 mg/dL
same,CRE,"[…], time 7 day",0.2 mg/dL
same,Ca,"[…], time 7 day",11.5 mg/dL
same,Cl,"[…], time 7 day",104.8 meq/L
same,DBIL,"[…], time 7 day",0 mg/dL
same,GLC,"[…], time 7 day",182.6 mg/dL
same,IP,"[…], time 7 day",8.9 mg/dL
same,K,"[…], time 7 day",4.3 meq/L
same,LDH,"[…], time 7 day",266 IU/L
same,Na,"[…], time 7 day",142.6 meq/L
same,PL,"[…], time 7 day",162.2 mg/dL
same,RALB,"[…], time 7 day",2.8 g/dL
same,TBIL,"[…], time 7 day",0.008 mg/dL
same,TC,"[…], time 7 day",76.4 mg/dL
same,TG,"[…], time 7 day",306.2 mg/dL
same,TP,"[…], time 7 day",5.6 g/dL
same,gamma-GTP,"[…], time 7 day",1.4 IU/L
same,A/G,"[…], time 14 day",0.7
same,ALP,"[…], time 14 day",1719.6 IU/L
same,ALT,"[…], time 14 day",43.8 IU/L
same,AST,"[…], time 14 day",99.6 IU/L
same,BUN,"[…], time 14 day",13.6 mg/dL
same,CRE,"[…], time 14 day",0.2 mg/dL
same,Ca,"[…], time 14 day",11.3 mg/dL
same,Cl,"[…], time 14 day",106.2 meq/L
same,DBIL,"[…], time 14 day",0 mg/dL
same,GLC,"[…], time 14 day",186.6 mg/dL
same,IP,"[…], time 14 day",7.7 mg/dL
same,K,"[…], time 14 day",4.1 meq/L
same,LDH,"[…], time 14 day",212.8 IU/L
same,Na,"[…], time 14 day",141.8 meq/L
same,PL,"[…], time 14 day",136.2 mg/dL
same,RALB,"[…], time 14 day",2.1 g/dL
same,TBIL,"[…], time 14 day",0.002 mg/dL
same,TC,"[…], time 14 day",67.8 mg/dL
same,TG,"[…], time 14 day",151.8 mg/dL
same,TP,"[…], time 14 day",5 g/dL
same,gamma-GTP,"[…], time 14 day",1.2 IU/L
same,A/G,"[…], time 28 day",0.6
same,ALP,"[…], time 28 day",1327.7 IU/L
same,ALT,"[…], time 28 day",55.3 IU/L
same,AST,"[…], time 28 day",166.3 IU/L
same,BUN,"[…], time 28 day",52 mg/dL
same,CRE,"[…], time 28 day",0.3 mg/dL
same,Ca,"[…], time 28 day",10.5 mg/dL
same,Cl,"[…], time 28 day",113 meq/L
same,DBIL,"[…], time 28 day",0.01 mg/dL
same,GLC,"[…], time 28 day",225 mg/dL
same,IP,"[…], time 28 day",9.1 mg/dL
same,K,"[…], time 28 day",4.1 meq/L
same,LDH,"[…], time 28 day",685.3 IU/L
same,Na,"[…], time 28 day",148.3 meq/L
same,PL,"[…], time 28 day",85 mg/dL
same,RALB,"[…], time 28 day",1.7 g/dL
same,TBIL,"[…], time 28 day",0.0233 mg/dL
same,TC,"[…], time 28 day",43.7 mg/dL
same,TG,"[…], time 28 day",57.3 mg/dL
same,TP,"[…], time 28 day",4.4 g/dL
same,gamma-GTP,"[…], time 28 day",2.3 IU/L
